A word on the IC50: it is the concentration that gives 50% inhibition.

Structures can show the parent of a compound that is named as a salt. A value given as a limit tells only on which side of the number the result lay.

For this assay, the target named is T1, ENPP1 protein (Homo sapiens, UniProt P22413).
T1 sequence (P22413 1-925): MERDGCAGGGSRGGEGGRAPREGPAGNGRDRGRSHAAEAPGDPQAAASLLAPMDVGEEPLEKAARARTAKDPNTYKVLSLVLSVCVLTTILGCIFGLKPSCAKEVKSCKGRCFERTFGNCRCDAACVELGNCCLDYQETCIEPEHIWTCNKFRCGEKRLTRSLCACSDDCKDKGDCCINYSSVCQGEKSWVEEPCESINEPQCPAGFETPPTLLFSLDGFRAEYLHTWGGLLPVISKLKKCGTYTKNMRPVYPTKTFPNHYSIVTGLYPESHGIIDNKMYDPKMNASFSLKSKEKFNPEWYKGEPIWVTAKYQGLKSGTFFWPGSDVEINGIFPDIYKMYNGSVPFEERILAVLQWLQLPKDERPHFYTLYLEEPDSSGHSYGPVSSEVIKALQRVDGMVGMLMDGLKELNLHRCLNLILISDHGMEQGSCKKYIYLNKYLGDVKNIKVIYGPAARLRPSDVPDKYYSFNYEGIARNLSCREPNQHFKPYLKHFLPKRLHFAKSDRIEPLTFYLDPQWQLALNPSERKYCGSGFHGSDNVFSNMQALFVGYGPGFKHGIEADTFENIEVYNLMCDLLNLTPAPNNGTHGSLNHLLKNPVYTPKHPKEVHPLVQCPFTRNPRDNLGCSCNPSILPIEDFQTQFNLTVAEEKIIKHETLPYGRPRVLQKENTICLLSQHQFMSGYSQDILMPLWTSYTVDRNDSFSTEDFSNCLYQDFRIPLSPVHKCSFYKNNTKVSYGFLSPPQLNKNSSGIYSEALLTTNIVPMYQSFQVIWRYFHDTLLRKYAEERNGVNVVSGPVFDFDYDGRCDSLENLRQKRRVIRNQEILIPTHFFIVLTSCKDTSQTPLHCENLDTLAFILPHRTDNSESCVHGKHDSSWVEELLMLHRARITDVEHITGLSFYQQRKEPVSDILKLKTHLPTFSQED
Kind of assay: ENPP1 Inhibition Assay. It is filed as biochemical. Also noted: purchased R&D 6136-EN-010. Particulars: substrate Thymidine 5′-monophosphate p-nitrophenol ester; 37° C. for 45 minutes; absorbance at 405 nm. The procedure:
1. ENPP1 Inhibition Assay
An eight point serial dilution of drugs was prepared in 10× in assay buffer with the final assay concentrations starting at 10 μM, 3 μM, 1 μM, 0.3 μM . . . 0 μM. A dilution of DMSO was included as a control. The assay plate was set up as follows with each well in duplicate: 81 μL assay buffer+10 μL ENPP1 inhibitor or DMSO+5 μL Substrate+4 μL Enzyme. Both the enzyme and substrate were added to opposite sides of the well to ensure that there was no interaction until all wells had both components. The plate was then centrifuged gently for 10 seconds, followed by an incubation at 37° C. for 45 minutes.
IC50 values are determined using GraphPad Prism 5 software. The data were entered as an X-Y plot into the software as percent inhibition for each concentration of the drug. The concentration values of the drug were log transformed and the nonlinear regression was carried out using the “sigmoidal dose-response (variable slope)” option within the GraphPad software to model the data and calculate IC50 values.
`COCCOc1cc2c(N3CCC(C(C)CNS(N)(=O)=O)CC3)ccnc2cc1OC` (stereo not shown) [Compound I-10, N-(2-(1-(7-methoxy-6-(2-methoxyethoxy)quinolin-4-yl)piperidin-4-yl)propyl)aninosulfonamide formate salt] registered a 50% inhibitory concentration (IC50) of 156 nM. In the case of `CCC(CNS(N)(=O)=O)C1CCN(c2ncnc3cc(OC)c(OC)cc23)CC1` (stereo not shown) [Compound I-25, N—(N-(2-(1-(6,7-dimethoxyquinazolin-4-yl)piperidin-4-yl)butyl)sulfuricdiamide formate salt] it was 5.05 nM; in that of `COCOc1cc2c(N3CCC(C(C)(C)CNS(N)(=O)=O)CC3)ncnc2cc1OC` [Compound I-36, N-(2-(1-(7-methoxy-6-(methoxymethoxy)quinazolin-4-yl)piperidin-4-yl)-2-methylpropyl)sulfuricdiamide], 52.6 nM. In the case of `COc1cc2nccc(N3CCN(CCNS(N)(=O)=O)[C@H](C)C3)c2cc1OC` [Compound I-21, (R)—N-(2-(4-(6,7-dimethoxyquinolin-4-yl)-2-methylpiperazin-1-yl)ethyl)aminosulfonamide formate salt] it was 344 nM; in that of `COc1cc2nccc(N3CCC(C(C)CNS(C)(=O)=O)CC3)c2cc1OC` (stereo not shown) [Compound I-19, N-(2-(1-(6,7-dimethoxyquinolin-4-yl)piperidin-4-yl)propyl)methanesulfonamide], 3810 nM; in that of `CNS(=O)(=O)NCC(C)C1CCN(c2ccnc3cc(OC)c(OC)cc23)CC1` (stereo not shown) [Compound I-15, N-(2-(1-(6,7-dimethoxyquinolin-4-yl)piperidin-4-yl)propyl)Methyaminosulfonamide], 3480 nM. In the case of `COc1cc2nccc(N3CCC(C4CCCN(S(N)(=O)=O)C4)CC3)c2cc1OC` (stereo not shown) [Compound I-17, 6,7-dimethoxy-4-(1-(aminosulfonyl)-[3,4′-bipiperidin]-1′-yl)quinoline formate salt] it was 75.8 nM; in that of `COc1ccc2c(N3CCC(C(C)CNS(N)(=O)=O)CC3)ccnc2c1` (stereo not shown) [Compound I-07, N-(2-(1-(7-methoxyquinolin-4-yl)piperidin-4-yl)propyl)aminosulfonamide], 250 nM; in that of `COc1cc2nccc(N3CCC(C(C)(C)CNS(N)(=O)=O)CC3)c2cc1OC` [Compound I-14, N-(2-(1-(6,7-dimethoxyquinolin-4-yl)piperidin-4-yl)-2-methylpropyl)sulfuricdiamide hydro chloride salt], 35.2 nM. `COc1cc2nccc(N3CCN(C4(CNS(N)(=O)=O)CC4)CC3)c2cc1OC` [Compound I-31, N-((1-(4-(6,7-dimethoxyquinolin-4-yl)piperazin-1-yl)cyclopropyl)methyl)sulfuricdiamide]: the 50% inhibitory concentration (IC50) was 23.7 nM. On to `COc1cc2ncnc(N3CCN(C4(CNS(N)(=O)=O)CC4)CC3)c2cc1OCF` [Compound I-34, N-((1-(4-(6-(fluoromethoxy)-7-methoxyquinazolin-4-yl)piperazin-1-yl)cyclopropyl)methyl)sulfuricdiamide], for which it took 133 nM to reach half-maximal inhibition (IC50). `COc1cc2ncnc(N3CCC(N(C4CC4)S(N)(=O)=O)CC3)c2cc1OC` [Compound I-30] gave a concentration for half-maximal inhibition (IC50) of 5610 nM. `COCOc1cc2c(N3CCC(C4(CNS(N)(=O)=O)CC4)CC3)ncnc2cc1OC` [Compound I-35, N-((1-(1-(7-methoxy-6-(methoxymethoxy)quinazolin-4-yl)piperidin-4-yl)cyclopropyl)methyl)sulfuricdiamide]: half-maximal inhibition (IC50) required 49.2 nM. `COc1cc2nccc(N3CCC(C4(CNS(N)(=O)=O)CC4)CC3)c2cc1OC` [Compound I-22] yielded an IC50 of 9.09 nM. As to `COc1cc2nccc(N3CCC(C(C)CNS(N)(=O)=O)CC3)c2cc1OCCO` (stereo not shown) [Compound I-11, N-(2-(1-(6-(2-hydroxyethoxy)-7-methoxyquinolin-4-yl)piperidin-4-yl)propyl)aminosulfonamide formate salt], inhibition was half-maximal at 4490 nM (IC50).

In the case of `COc1cc2nccc(N3CCC(C(C)CN(C4CC4)S(N)(=O)=O)CC3)c2cc1OC` (stereo not shown) [Compound I-16, N-cyclopropyl-N-(2-(1-(6,7-dimethoxyquinolin-4-yl)piperidin-4-yl)propyl)aminosulfonamide formate salt], the IC50 turned out to be 409 nM. The figure for `COc1ccc2nccc(N3CCC(C(C)CNS(N)(=O)=O)CC3)c2c1` (stereo not shown) [Compound I-08, N-(2-(1-(6-methoxyquinolin-4-yl)piperidin-4-yl)propyl)aminosulfonamide] is 224 nM. Compound `COc1cc2ncnc(N3CCN(C4(CNS(N)(=O)=O)CC4)CC3)c2cc1OC` [Compound I-32, N-((1-(4-(6,7-dimethoxyquinazolin-4-yl)piperazin-1-yl)cyclopropyl)methyl)sulfuricdiamide] returned a 50% inhibitory concentration (IC50) of 55.6 nM. In the case of `COc1cc2nccc(N3CCC(C(C)CNS(N)(=O)=O)CC3)c2cc1O` (stereo not shown) [Compound I-09, N—(N-(2-(1-(6-hydroxy-7-methoxyquinolin-4-yl)piperidin-4-yl)propyl)sulfuricdiamide formate salt], the IC50 turned out to be 1880 nM. In the case of `COc1cc2ncnc(N3CCC(CCNS(N)(=O)=O)CC3)c2cc1OP(=O)(O)O` [Compound I-03, sodium 7-methoxy-4-(4-(2-(sulfamoylamino)ethyl)piperidin-1-yl)quinazolin-6-yl phosphate] it was 2870 nM. For the compound `COc1cc2ncnc(N3CCC(C4(CNS(N)(=O)=O)CC4)CC3)c2cc1OC` [Compound I-27, N—(N-((1-(1-(6,7-dimethoxyquinazolin-4-yl)piperidin-4-yl)cyclopropyl)methyl)sulfuricdiamide formate salt], half-maximal inhibition (IC50) was put at 11.5 nM. In the case of `COc1cc2nccc(N3CCC(N(C4CC4)S(N)(=O)=O)CC3)c2cc1OC` [Compound I-24, N—(N-cyclopropyl-N-(1-(6,7-dimethoxyquinolin-4-yl)piperidin-4-yl)sulfuricdiamide formate salt], half-maximal inhibition (IC50) required 953 nM. In the case of `COc1cc2ncnc(N3CCC(C(C)(C)CNS(N)(=O)=O)CC3)c2cc1OC` [Compound I-26, N-(2-(1-(6,7-dimethoxyquinazolin-4-yl)piperidin-4-yl)-2-methylpropyl)sulfuricdiamide formate salt] it was 2.39 nM. Consider `COc1cc2ncnc(N3CCC(NS(N)(=O)=O)CC3)c2cc1OC` [Compound I-29, N—(N-(1-(6,7-dimethoxyquinazolin-4-yl)piperidin-4-yl)sulfuricdiamide formate salt], for which the IC50 was found to be 420 nM.

Compound `COc1cc2nccc(N3CCC(NS(N)(=O)=O)CC3)c2cc1OC` [Compound I-23, N—(N-(1-(6,7-dimethoxyquinolin-4-yl)piperidin-4-yl)sulfuricdiamide formate salt] showed an IC50 of 897 nM. As for `COc1cc2nccc(N3CCC(C(=O)NC4(C#N)CC4)CC3)c2cc1OC` [Compound I-18, N-(1-cyanocyclopropyl)-1-(6,7-dimethoxyquinolin-4-yl)piperidine-4-carboxamide], the half-maximal inhibitory concentration (IC50) is over 10000 nM.

`COCOc1cc2c(N3CCC(C(C)CNS(N)(=O)=O)CC3)ncnc2cc1OC` (stereo not shown) [Compound I-28] registered an IC50 of 26.2 nM.

For `COc1cc2nccc(N3CCC(C4(CNS(N)(=O)=O)CC4)CC3)c2cc1OCF` [Compound I-37, N-((1-(1-(6-(fluoromethoxy)-7-methoxyquinolin-4-yl)piperidin-4-yl)cyclopropyl)methyl)sulfuricdiamide], inhibition was half-maximal at 1.09 nM (IC50).

These data come from patent US11407729B2, “Quinoline and quinazoline compounds and methods of use thereof” (Stingray Therapeutics, Inc., priority 2019, dated 2022).
